In test [1] the target is T1, Arabidopsis HPPD single point mutant SEQ ID No. 46 (Arabidopsis thaliana, UniProt P93836, K421I).
T1 construct: made in house; host or cells: E. coli BL21 (DE3)
The test can be described thus: biochemical. The text has this: (§1) In this content, pI50-value means the log value of the concentration of inhibitor necessary to inhibit 50% of the enzyme activity in molar concentration.

Test [2] addresses T2, Arabidopsis HPPD single point mutant SEQ ID No. 44 (Arabidopsis thaliana, UniProt P93836, L368M).
T2 construct: made in house; host or cells: E. coli BL21 (DE3)
Description: biochemical.
Description: as §1

The target of test [3] is T3, Arabidopsis HPPD single point mutant SEQ ID No. 48 (Arabidopsis thaliana, UniProt P93836, K421Q).
T3 construct: made in house; host or cells: E. coli BL21 (DE3)
T3 sequence (P93836 other isoform, or with tags, fused parts or gaps K421Q): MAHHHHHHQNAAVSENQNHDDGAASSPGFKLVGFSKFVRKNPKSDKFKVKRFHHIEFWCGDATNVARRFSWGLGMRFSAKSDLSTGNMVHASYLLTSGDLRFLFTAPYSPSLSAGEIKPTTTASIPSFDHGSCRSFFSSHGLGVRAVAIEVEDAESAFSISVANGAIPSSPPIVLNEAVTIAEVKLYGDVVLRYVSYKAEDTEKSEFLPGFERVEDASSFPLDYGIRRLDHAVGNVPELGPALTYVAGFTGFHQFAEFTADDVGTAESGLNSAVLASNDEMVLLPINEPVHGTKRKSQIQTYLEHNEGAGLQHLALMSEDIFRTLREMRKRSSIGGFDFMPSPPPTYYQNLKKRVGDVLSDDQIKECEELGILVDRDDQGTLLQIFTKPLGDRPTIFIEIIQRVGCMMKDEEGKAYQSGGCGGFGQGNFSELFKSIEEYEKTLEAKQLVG
Description: biochemical.
Description: as §1

The target in test [4] is T4, Arabidopsis HPPD single point mutant SEQ ID No. 35 (Arabidopsis thaliana, UniProt P93836, E252S).
T4 construct: made in house; host or cells: E. coli BL21 (DE3)
T4 sequence (P93836 whole entry E252S): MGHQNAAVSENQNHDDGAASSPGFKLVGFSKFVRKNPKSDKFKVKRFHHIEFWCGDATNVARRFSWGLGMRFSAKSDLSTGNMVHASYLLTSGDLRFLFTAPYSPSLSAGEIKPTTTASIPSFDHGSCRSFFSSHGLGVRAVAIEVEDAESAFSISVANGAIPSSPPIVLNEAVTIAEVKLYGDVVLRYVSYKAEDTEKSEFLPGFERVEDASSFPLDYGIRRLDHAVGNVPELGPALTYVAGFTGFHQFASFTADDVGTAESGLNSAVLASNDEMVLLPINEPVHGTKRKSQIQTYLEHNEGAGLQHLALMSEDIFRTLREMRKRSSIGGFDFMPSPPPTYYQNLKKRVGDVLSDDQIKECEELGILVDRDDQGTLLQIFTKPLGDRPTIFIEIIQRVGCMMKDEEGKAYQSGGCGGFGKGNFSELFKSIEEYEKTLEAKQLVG
Description: biochemical.
Description: as §1

Test [5] addresses T5, Arabidopsis HPPD single point mutant SEQ ID No. 40 (Arabidopsis thaliana, UniProt P93836, V269A).
T5 construct: made in house; host or cells: E. coli BL21 (DE3)
Description: biochemical.
Description: as §1

The target of test [6] is T6, Arabidopsis HPPD single point mutant SEQ ID No. 50 (Arabidopsis thaliana, UniProt P93836, K421V).
T6 construct: made in house; host or cells: E. coli BL21 (DE3)
T6 sequence (P93836 other isoform, or with tags, fused parts or gaps K421V): as the sequence (P93836 other isoform, or with tags, fused parts or gaps K421Q) above, with Q426V counted along it
Description: biochemical.
Description: as §1

Test [7] deals with T7, Arabidopsis HPPD single point mutant SEQ ID No. 42 (Arabidopsis thaliana, UniProt P93836, P280A).
T7 construct: made in house; host or cells: E. coli BL21 (DE3)
T7 sequence (P93836 other isoform, or with tags, fused parts or gaps P280A): as the sequence (P93836 other isoform, or with tags, fused parts or gaps K421Q) above, with P285A, Q426K counted along it
Description: biochemical.
Description: as §1

The target of test [8] is T8, HPPD enzyme “SEQ ID No. 32” (Arabidopsis thaliana, UniProt P93836).
T8 construct: made in house; host or cells: E. coli BL21 (DE3)
T8 sequence (P93836 with tags, fused parts or gaps): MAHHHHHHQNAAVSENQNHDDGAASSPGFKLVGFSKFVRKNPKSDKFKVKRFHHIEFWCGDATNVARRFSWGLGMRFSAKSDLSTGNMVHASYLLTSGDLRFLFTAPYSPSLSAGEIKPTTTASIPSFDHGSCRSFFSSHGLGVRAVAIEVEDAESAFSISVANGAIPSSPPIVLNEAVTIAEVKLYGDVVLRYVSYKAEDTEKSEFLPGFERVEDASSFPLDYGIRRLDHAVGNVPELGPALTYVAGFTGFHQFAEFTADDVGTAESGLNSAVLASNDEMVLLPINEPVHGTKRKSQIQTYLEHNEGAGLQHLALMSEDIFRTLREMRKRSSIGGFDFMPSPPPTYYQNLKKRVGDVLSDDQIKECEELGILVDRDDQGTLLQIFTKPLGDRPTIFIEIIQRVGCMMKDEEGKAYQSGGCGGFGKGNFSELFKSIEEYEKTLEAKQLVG
Description: HPLC assay of HPPD in vitro kinetic properties (Km, Vmax, kcat; Ki, Kon, Koff). The class given is biochemical. The settings on record: for kinetic parameter / sensitivity of Arabidopsis thaliana HPPD in presence of inhibitor: 2 mM HPP. The method, then: Km, Vmax, and kcat values for different HPPD enzyme preparations and Ki, K1=Kon, and K−1=Koff for different HPPD inhibitors were determined using a HPLC assay for measurements of HPPD activity. […] All assays were started by the addition of HPPD enzyme to the assay mixture and stopped at a series of times between 0 and 240 s by addition of 200 μl of the reaction mixture to reaction assay tubes containing 20 μl 10% perchloric acid. Precipitated protein was pelleted by a 5 minute centrifugation at 10,000 g.
For Km and Vmax value determinations the initial rates of the HPPD reaction at different substrate concentrations were determined from plots of HGA formed versus time and fitted to the Michaelis-Menten equation for unireactant enzymes using the ID Business Solutions Ltd. (www.idbs.com) XLfit software suite.

A further test deals with HPPD activity. The test can be described thus: Colorimetric screening test for active HPPD enzymes (production of brown color). Format: cell-based, Escherichia coli. To be noted: E. coli with pSE420-HPPDx, 5 mM L-Tyrosine, 16 hours at 37° C. The method, then:
A YT-broth-type culture medium with 1% agarose, 5 mM L-Tyrosine and 42 mM Succinate, which contains the selection agent for the vector pSE420 (Invitrogen, Karlsruhe, Germany) is poured into deep well plates. E. coli culture in the exponentional growth phase which contains the vector pSE420-HPPDx (HPPDx means any gene coding for a putative HPPD enzyme/protein) is applied to each well.
A YT-broth-type culture medium with 1% agarose, 5 mM L-Tyrosine and 42 mM Succinate, which contains the selection agent for the vector pSE420 is poured into deep well plates. E. coli culture in the exponentional growth phase which contains the vector pSE420-HPPDx (any gene coding for a putative HPPD enzyme/protein) is applied to each well.
It can be concluded that the two HPPD mutants are not able to convert HPP into homogentisate. […] One can conclude that the amino acid positions 267 and 282 (referring to position in SEQ ID No. 2) are essential for HPPD activity.

Setting [9] is: substrate HPP varied 10-400 μM, HPPD SEQ ID No. 32, HPLC assay.

The text below walks through data of patent US20250223607A1, “HPPD Variants and Methods of Use” (BASF Agricultural Solutions Seed US LLC, priority 2013, published 2025).

T2 sequence (P93836 other isoform, or with tags, fused parts or gaps L368M): as the sequence (P93836 other isoform, or with tags, fused parts or gaps K421Q) above, with L373M, Q426K counted along it
T1 sequence (P93836 other isoform, or with tags, fused parts or gaps K421I): as the sequence (P93836 other isoform, or with tags, fused parts or gaps K421Q) above, with Q426I counted along it
T5 sequence (P93836 other isoform, or with tags, fused parts or gaps V269A): as the sequence (P93836 other isoform, or with tags, fused parts or gaps K421Q) above, with V274A, Q426K counted along it

For `Cc1ccc(C(=O)COc2c(C(=O)c3ccc(Cl)c(C)c3Cl)c(C)nn2C)cc1` [Benzofenap], the IC50 is 7.94 µM in [1]; below 2.51 µM in [2]; below 2.51 µM in test [3]; 6.31 µM in test [4]; 6.31 µM in test [5]; 6.31 µM in [6]. Besides, in test [7], the midpoint of inhibition, the IC50, lay at 6.31 µM.

On to `CS(=O)(=O)c1ccc(C(=O)C2C(=O)CCCC2=O)c([N+](=O)[O-])c1` [Mesotrione, 2-[4-(methylsulfonyl)-2-nitrobenzoyl]-1,3-cyclohexanedione], for which the IC50 in [3] is below 2.51 µM.

Take `O=C(O)C(=O)Cc1ccc(O)cc1` [HPP]: in test [8] (setting [9]), the Km amounted to 6.3 µM and the Vmax came to 1.2 µM.

Regarding `COCCOCc1nc(C(F)(F)F)ccc1C(=O)C1=C(O)C2CCC(C2)C1=O` (stereo not shown) [Bicyclopyrone, 4-hydroxy-3-[[2-[(2-methoxyethoxy)methyl]-6-(trifluoromethyl)-3-pyridinyl]carbonyl]bicyclo[3.2.1]oct-3-en-2-one], the IC50 is 63.1 µM in [1]; 31.6 µM in test [2]; 20 µM in [3]; 50.1 µM in [4]; 50.1 µM in [5]; 63.1 µM in test [6]. This molecule gave an IC50 in test [7] of 50.1 µM.

On to `CS(=O)(=O)c1ccc(C(=O)C2C(=O)CCCC2=O)c(Cl)c1` [Sulcotrione, 2-[2-chloro-4-(methylsulfonyl)benzoyl]-1,3-cyclohexanedione], for which the IC50 is 10 µM in test [1]; 6.31 µM in test [2]; below 2.51 µM in test [3]; 7.94 µM in test [4]; 10 µM in [5]; 7.94 µM in [6]. Also, the IC50 in [7] was 10 µM.

`CS(=O)(=O)c1ccc(C(=O)C2C(=O)CCCC2=O)c(Cl)c1COCC(F)(F)F` [Tembotrione, 2-[2-chloro-4-(methylsulfonyl)-3-[(2,2,2,-tri-fluoroethoxy)methyl]benzoyl]-1,3-cyclo-hexanedione]: the IC50 in [2], in test [3], in test [5], in test [6] and in test [7] was below 2.51 µM in each case. In [8], the “kinetic parameter / sensitivity of Arabidopsis thaliana HPPD in presence of inhibitor” value is on record as “comparable range”.

In the case of `CS(=O)(=O)c1cc(C(F)(F)F)ccc1C(=O)C(C#N)C(=O)C1CC1` (stereo not shown) [Diketonitrile, 2-cyano-3-cyclopropyl-1-(2-methylsulphonyl-4-trifluoromethylphenyl)-propane-1,3-dione], in [8], the “kinetic parameter / sensitivity of Arabidopsis thaliana HPPD in presence of inhibitor” value is listed as “sensitive in the similar range as the carrot HPPD”.

B1: S267A: point mutant S267A of A. thaliana HPPD with N-terminal alanine and 6 histidines (protein)
chain: MAHHHHHHQNAAVSENQNHDDGAASSPGFKLVGFSKFVRKNPKSDKFKVKRFHHIEFWCGDATNVARRFSWGLGMRFSAKSDLSTGNMVHASYLLTSGDLRFLFTAPYSPSLSAGEIKPTTTASIPSFDHGSCRSFFSSHGLGVRAVAIEVEDAESAFSISVANGAIPSSPPIVLNEAVTIAEVKLYGDVVLRYVSYKAEDTEKSEFLPGFERVEDASSFPLDYGIRRLDHAVGNVPELGPALTYVAGFTGFHQFAEFTADDVGTAESGLNAAVLASNDEMVLLPINEPVHGTKRKSQIQTYLEHNEGAGLQHLALMSEDIFRTLREMRKRSSIGGFDFMPSPPPTYYQNLKKRVGDVLSDDQIKECEELGILVDRDDQGTLLQIFTKPLGDRPTIFIEIIQRVGCMMKDEEGKAYQSGGCGGFGKGNFSELFKSIEEYEKTLEAKQLVG
modifications: N-terminal alanine and His6 tag; encoded by SEQ ID No. 33; SITE 2 MISC_FEATURE - Ala; MISC_FEATURE - His Tag made of 6 His
notes: point mutant S267A of A. thaliana HPPD with N-terminal alanine and 6 histidines
For B1, the “HPPD activity (production of brown color)” value (from here on “HPPD activity”) in the test on HPPD activity is “inactive”.

B2: N282A: point mutant N282A of A. thaliana HPPD with N-terminal alanine and 6 histidines (protein)
chain: MAHHHHHHQNAAVSENQNHDDGAASSPGFKLVGFSKFVRKNPKSDKFKVKRFHHIEFWCGDATNVARRFSWGLGMRFSAKSDLSTGNMVHASYLLTSGDLRFLFTAPYSPSLSAGEIKPTTTASIPSFDHGSCRSFFSSHGLGVRAVAIEVEDAESAFSISVANGAIPSSPPIVLNEAVTIAEVKLYGDVVLRYVSYKAEDTEKSEFLPGFERVEDASSFPLDYGIRRLDHAVGNVPELGPALTYVAGFTGFHQFAEFTADDVGTAESGLNSAVLASNDEMVLLPIAEPVHGTKRKSQIQTYLEHNEGAGLQHLALMSEDIFRTLREMRKRSSIGGFDFMPSPPPTYYQNLKKRVGDVLSDDQIKECEELGILVDRDDQGTLLQIFTKPLGDRPTIFIEIIQRVGCMMKDEEGKAYQSGGCGGFGKGNFSELFKSIEEYEKTLEAKQLVG
modifications: N-terminal alanine and His6 tag; encoded by SEQ ID No. 35; SITE 2 MISC_FEATURE - Ala; MISC_FEATURE - His Tag made of 6 His
notes: point mutant N282A of A. thaliana HPPD with N-terminal alanine and 6 histidines
With B2, the “HPPD activity” value in the test with HPPD activity is “inactive”.

B3: wild type HPPD: Arabidopsis thaliana wild type HPPD polypeptide with N-terminal alanine and 6 histidine amino acids (protein)
chain: MAHHHHHHQNAAVSENQNHDDGAASSPGFKLVGFSKFVRKNPKSDKFKVKRFHHIEFWCGDATNVARRFSWGLGMRFSAKSDLSTGNMVHASYLLTSGDLRFLFTAPYSPSLSAGEIKPTTTASIPSFDHGSCRSFFSSHGLGVRAVAIEVEDAESAFSISVANGAIPSSPPIVLNEAVTIAEVKLYGDVVLRYVSYKAEDTEKSEFLPGFERVEDASSFPLDYGIRRLDHAVGNVPELGPALTYVAGFTGFHQFAEFTADDVGTAESGLNSAVLASNDEMVLLPINEPVHGTKRKSQIQTYLEHNEGAGLQHLALMSEDIFRTLREMRKRSSIGGFDFMPSPPPTYYQNLKKRVGDVLSDDQIKECEELGILVDRDDQGTLLQIFTKPLGDRPTIFIEIIQRVGCMMKDEEGKAYQSGGCGGFGKGNFSELFKSIEEYEKTLEAKQLVG
modifications: misc_feature 1..1353 Nucleic acid sequence encoding Arabidopsis HPPD plus containingat the 5' end a nucleic acid encoding an Ala and 6 His aminoacids; misc_feature 4..6 sequence coding for an Ala; misc_feature 7..24 sequence coding for an His Tag containing 6 His
For B3, the “HPPD activity” value in the test with HPPD activity is given as “strong brown color”.
